In patent publication US9227977B2, “Phosphoinositide 3-kinase inhibitors” (RESPIVERT LTD., priority 2013, dated 2016):
Read-outs that look alike come from different tables or passages of the source.

What was measured:
PI3K α = PI3K α (Homo sapiens (Human), UniProt P42336); test: PI3K enzyme inhibition assay (HTRF TR-FRET); assay type: biochemical
Excerpt: (§1) The PI3K enzymes catalyse the phosphorylation of phosphatidylinositol 4,5-biphosphate (PIP2) to phosphatidylinositol 3,4,5-triphosphate (PIP3) in the presence of ATP and Mg^2+ ions. The PIP3 product can be detected by displacement of biotin-PIP3 from energy transfer complexes consisting of europium labelled anti-GST monoclonal antibody, a GST-tagged Pleckstrin homology (PH) domain, biotinylated PIP3 and streptavidin-allophycocyanin (APC) by the time-resolved fluorescence resonance energy transfer (TR-FRET) (HTRF®PI3K enzyme assay, Millipore). Excitation, at 330 nm, of europium in the complex results in an energy transfer to the APC and a fluorescent emission at 665 nm although europium itself emits at its characteristic wavelength of 620 nm. The PIP3 product formed by PI3K activity displaces biotin-PIP3 from the complex and results in a loss of energy transfer (decreasing signal).
(§2) The compound to be tested was added, at the desired final concentrations, to a mixture of PIP2 substrate and a recombinant PI3K enzyme (either α, β or δ isoforms, ex Millipore, or γ isoform [p110γ+p101 construct], ex United States Biological, Swampscott, Mass.) and the mixture incubated for 2 hr at RT. […] A stopping solution containing biotinylated PIP3 and the detection mix containing the GST tagged GRP1 pleckstrin homology (PH) domain and fluorophores were then added and the mixture was incubated at RT for 15-18 hr, prior to detection in a fluorescence microplate reader (Synergy 4, BioTek UK, Bedfordshire, UK).
(§3) The results were calculated according to the formula: APC signal (emission at 665 nm)/europium signal (emission at 620 nm)×10^4.

PI3K γ = PI3K γ (Homo sapiens (Human), UniProt P48736); test: PI3K enzyme inhibition assay (HTRF TR-FRET); assay type: biochemical
Sequence of PI3K γ (P48736 whole entry, species assumed): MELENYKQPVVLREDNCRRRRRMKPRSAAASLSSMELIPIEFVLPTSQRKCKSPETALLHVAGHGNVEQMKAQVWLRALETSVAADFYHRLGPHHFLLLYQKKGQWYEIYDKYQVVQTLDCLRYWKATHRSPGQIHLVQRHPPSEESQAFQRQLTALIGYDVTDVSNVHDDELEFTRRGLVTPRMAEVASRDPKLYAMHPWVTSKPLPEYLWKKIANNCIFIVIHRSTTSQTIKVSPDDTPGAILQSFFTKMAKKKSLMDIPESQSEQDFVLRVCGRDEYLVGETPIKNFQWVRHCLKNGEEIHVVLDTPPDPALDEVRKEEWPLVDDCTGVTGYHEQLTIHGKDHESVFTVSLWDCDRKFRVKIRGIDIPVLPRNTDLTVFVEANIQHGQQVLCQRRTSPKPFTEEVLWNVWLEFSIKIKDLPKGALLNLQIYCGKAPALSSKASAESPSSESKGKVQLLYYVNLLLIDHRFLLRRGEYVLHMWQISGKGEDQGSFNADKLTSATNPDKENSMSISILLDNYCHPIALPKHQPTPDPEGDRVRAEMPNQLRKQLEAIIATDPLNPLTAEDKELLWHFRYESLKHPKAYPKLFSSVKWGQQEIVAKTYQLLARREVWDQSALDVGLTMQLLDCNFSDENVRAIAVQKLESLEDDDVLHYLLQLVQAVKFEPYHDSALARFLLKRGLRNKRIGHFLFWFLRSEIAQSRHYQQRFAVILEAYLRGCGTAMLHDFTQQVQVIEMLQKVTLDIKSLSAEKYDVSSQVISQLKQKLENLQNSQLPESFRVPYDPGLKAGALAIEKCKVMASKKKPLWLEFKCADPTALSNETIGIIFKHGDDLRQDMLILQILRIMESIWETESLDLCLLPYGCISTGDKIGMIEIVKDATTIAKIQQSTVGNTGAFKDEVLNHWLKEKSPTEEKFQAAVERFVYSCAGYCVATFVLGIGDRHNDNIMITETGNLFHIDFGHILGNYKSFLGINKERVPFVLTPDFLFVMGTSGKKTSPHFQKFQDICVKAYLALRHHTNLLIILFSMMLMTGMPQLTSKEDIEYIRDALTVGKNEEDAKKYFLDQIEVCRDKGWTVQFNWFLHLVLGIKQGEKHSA
Sequence of PI3K γ (Q8WYR1 whole entry partner, species assumed): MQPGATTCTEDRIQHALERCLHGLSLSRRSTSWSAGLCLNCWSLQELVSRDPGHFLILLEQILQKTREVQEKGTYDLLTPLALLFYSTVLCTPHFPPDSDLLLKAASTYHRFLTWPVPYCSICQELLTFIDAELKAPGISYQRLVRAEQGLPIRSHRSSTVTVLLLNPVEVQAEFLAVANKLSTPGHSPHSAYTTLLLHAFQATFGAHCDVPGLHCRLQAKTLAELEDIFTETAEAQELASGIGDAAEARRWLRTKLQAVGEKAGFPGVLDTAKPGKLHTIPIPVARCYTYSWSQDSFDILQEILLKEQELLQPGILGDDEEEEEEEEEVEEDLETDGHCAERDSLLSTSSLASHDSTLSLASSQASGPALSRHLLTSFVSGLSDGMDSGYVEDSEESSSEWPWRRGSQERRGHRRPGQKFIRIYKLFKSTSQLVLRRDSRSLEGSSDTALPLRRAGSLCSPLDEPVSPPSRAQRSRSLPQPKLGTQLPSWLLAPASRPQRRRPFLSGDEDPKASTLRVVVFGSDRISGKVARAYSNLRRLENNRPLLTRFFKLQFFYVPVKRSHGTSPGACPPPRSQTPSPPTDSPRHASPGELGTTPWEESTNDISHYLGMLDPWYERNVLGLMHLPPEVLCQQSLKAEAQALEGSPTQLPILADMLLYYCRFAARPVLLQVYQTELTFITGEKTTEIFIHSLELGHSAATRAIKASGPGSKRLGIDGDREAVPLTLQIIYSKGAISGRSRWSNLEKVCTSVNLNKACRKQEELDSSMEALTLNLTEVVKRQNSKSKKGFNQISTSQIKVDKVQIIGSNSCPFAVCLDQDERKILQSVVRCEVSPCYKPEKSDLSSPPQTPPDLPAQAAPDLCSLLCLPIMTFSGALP
Excerpt: as §1, §2, §3

PI3K δ [1] = target: T1, PI3K δ (Homo sapiens (Human), UniProt O00329); test: PI3K enzyme inhibition assay (HTRF TR-FRET); assay type: biochemical
Excerpt: as §1, §2, §3
Target sequence in this assay (O00329 whole entry, species assumed): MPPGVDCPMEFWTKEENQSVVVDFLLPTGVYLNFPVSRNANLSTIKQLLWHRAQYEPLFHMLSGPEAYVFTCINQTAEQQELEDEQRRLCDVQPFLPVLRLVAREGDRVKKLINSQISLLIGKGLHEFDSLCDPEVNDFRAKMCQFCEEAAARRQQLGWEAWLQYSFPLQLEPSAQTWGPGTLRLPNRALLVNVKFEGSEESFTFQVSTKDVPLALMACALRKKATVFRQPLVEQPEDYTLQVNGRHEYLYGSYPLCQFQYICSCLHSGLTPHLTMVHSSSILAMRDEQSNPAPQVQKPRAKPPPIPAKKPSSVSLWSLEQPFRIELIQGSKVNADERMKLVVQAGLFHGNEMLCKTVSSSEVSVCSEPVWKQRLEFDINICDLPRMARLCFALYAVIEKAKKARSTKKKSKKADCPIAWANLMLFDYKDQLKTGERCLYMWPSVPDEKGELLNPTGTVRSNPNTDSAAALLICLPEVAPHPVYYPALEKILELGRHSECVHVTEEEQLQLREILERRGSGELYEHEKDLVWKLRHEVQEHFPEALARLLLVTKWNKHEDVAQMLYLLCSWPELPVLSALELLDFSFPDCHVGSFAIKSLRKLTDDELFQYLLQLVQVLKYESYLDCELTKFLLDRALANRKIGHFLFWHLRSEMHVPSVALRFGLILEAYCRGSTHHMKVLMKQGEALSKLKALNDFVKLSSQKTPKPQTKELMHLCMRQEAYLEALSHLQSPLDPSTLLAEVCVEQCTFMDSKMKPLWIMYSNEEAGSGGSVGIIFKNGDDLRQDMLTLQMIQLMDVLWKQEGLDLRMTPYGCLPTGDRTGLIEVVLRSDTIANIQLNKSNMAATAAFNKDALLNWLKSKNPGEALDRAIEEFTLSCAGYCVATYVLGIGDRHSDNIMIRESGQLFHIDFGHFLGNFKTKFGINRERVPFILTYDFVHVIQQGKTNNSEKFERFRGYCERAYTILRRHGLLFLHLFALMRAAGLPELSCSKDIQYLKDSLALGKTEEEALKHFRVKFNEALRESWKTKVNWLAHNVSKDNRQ
Target sequence in this assay (P27986 whole entry partner, species assumed): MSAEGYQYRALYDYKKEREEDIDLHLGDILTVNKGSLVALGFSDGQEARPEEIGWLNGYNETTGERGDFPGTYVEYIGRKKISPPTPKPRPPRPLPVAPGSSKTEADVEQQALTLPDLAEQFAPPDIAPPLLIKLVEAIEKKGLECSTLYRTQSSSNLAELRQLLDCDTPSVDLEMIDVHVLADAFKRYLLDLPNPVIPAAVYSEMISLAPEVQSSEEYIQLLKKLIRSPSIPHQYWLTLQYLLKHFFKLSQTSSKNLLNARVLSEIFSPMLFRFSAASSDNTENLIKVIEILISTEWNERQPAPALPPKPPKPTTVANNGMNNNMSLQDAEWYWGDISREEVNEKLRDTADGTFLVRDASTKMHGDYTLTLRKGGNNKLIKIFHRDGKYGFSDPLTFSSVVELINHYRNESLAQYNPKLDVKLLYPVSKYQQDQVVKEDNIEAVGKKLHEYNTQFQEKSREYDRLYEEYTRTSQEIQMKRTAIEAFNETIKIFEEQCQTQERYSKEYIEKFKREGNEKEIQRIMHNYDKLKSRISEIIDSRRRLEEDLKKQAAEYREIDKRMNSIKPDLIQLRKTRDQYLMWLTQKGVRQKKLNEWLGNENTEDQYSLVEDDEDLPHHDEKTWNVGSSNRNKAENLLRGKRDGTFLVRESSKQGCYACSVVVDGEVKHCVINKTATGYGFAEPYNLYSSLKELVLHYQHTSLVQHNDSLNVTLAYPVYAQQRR

PI3K δ [2] = target: T1, PI3K δ; test: PI3K δ cell based assay: H2O2-induced Akt phosphorylation in d-U937 cells; settings: inhibition of induced Akt phosphorylation, H2O2 stimulus; read-out: REC50 values in d-U937 cells, H2O2 stimulus
Method: As a means of assessing PI3K δ activation in response to stimuli, the phosphorylation status of the protein, Akt, a downstream product of PI3Kδ, signaling was determined.
U937 cells, obtained from a human, leukemic, monocyte lymphoma cell line, were differentiated to macrophage-type cells by incubation with PMA (100 ng/mL) for 48 to 72 hr. Cells were then pre-incubated with either the test compound or vehicle for 2 hr and were then stimulated briefly by exposure to H2O2 (10 mM, 5-7 min) and the reaction stopped by replacing the media with 4% formaldehyde solution. […] After washing with buffer (PBS containing 0.1% Triton X-100), cells were incubated with an HRP-conjugated secondary antibody (Dako) and the resultant signal was determined colorimetrically (OD: 450 nm with a reference wavelength of 655 nm) using TMB substrate (substrate reagent pack supplied by R&D Systems, Inc.).
This reaction was stopped by the addition of H2SO4 solution (100 μL). […] After washing with buffer (PBS containing 0.1% Triton X-100) 1% SDS (100 μL) was added to each well and the plates were shaken lightly for 1 hr prior to measuring the absorbance at 595 nm (Varioskan® Flash, Thermo-Fisher Scientific). The measured OD450-655 readings were corrected for cell number by dividing the OD450-655 by the OD595 readings. The ratio of pAkt signal to total Akt signal was used to quantitate the extent of PI3K δ activation. […]
Target sequence in this assay (O00329 whole entry): as the sequence (O00329 whole entry, species assumed) above
Target sequence in this assay (P27986 whole entry partner): as the sequence (P27986 whole entry partner, species assumed) above

d-U937 cells = test: MTT assay, cell viability; assay type: cell-based, human
Method: PMA-differentiated U937 cells were pre-incubated with test compound (10 μg/mL) or vehicle for 4 hr in 5% FCS or 10% FCS for 24 hr. The supernatant was replaced with new media (200 μL) and MTT stock solution (10 μL, 5 mg/mL) was added to each well. After 1 hr incubation, the media were removed, 200 μL of DMSO was added to each well and the plates were shaken lightly for 1 hr prior to reading the absorbance at 550 nm. The percentage loss of cell viability was calculated for each well relative to vehicle (0.5% DMSO)-treatment.

Sequence of PI3K α (P42336 whole entry, species assumed): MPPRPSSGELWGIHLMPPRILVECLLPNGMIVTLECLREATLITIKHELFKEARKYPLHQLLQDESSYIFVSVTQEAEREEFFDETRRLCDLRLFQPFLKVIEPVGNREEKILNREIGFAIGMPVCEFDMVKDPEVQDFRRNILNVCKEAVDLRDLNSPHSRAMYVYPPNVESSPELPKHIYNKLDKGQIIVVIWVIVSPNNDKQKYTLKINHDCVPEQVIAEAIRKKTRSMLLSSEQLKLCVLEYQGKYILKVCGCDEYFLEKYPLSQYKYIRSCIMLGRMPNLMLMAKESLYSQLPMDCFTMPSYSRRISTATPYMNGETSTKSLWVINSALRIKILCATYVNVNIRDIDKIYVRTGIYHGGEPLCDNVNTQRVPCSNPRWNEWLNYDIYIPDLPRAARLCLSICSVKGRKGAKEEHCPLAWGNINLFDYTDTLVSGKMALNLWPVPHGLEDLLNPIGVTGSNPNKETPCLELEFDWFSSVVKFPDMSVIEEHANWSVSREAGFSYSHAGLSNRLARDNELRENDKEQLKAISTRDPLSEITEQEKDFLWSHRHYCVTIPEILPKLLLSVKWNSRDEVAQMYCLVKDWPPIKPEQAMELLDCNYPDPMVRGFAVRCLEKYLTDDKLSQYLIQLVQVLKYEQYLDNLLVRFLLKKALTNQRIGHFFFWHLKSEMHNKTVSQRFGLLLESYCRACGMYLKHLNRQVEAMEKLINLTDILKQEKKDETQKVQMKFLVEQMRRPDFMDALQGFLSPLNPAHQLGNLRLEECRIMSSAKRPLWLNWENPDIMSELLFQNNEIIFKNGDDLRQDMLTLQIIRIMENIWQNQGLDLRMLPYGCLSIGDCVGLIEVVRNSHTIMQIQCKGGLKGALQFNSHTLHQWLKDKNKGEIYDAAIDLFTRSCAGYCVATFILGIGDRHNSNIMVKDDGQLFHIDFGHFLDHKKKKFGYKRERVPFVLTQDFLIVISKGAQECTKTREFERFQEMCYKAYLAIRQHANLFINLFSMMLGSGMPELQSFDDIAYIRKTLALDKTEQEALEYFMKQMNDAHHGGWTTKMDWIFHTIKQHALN
Sequence of PI3K α (P27986 whole entry partner, species assumed): as the sequence (P27986 whole entry partner, species assumed) above

COCCOCCOCC#Cc1cccc2nc(Cn3nc(-c4cc(O)cc(F)c4)c4c(N)ncnc43)n(Cc3ccccc3C(F)(F)F)c(=O)c12 [Compound (I), 2-((4-Amino-3-(3-fluoro-5-hydroxyphenyl)-1H-pyrazolo[3,4-d]pyrimidin-1-yl)methyl)-5-(3-(2-(2-methoxyethoxy)ethoxy)prop-1-yn-1-yl)-3-(2-(trifluoromethyl)benzyl)quinazolin-4(3H)-one]
inhibitory activity versus PI3K α in enzyme assays (in words) (PI3K α): no inhibitory activity | IC50 (PI3K α; read-out: IC50 Values for PI3K inhibition at isozyme indicated, PI3K α): > 13900 nM | IC50 (PI3K α; read-out: PI3 Kinase Inhibition IC50 value at state isozyme, α): > 13900 nM | IC50 (PI3K γ; read-out: IC50 Values for PI3K inhibition at isozyme indicated, PI3K γ): 28 nM | IC50 (PI3K γ; read-out: PI3 Kinase Inhibition IC50 value at state isozyme, γ): 28 nM | IC50 (PI3K δ [1]; read-out: IC50 Values for PI3K inhibition at isozyme indicated, PI3K δ): 2.5 nM | IC50 (PI3K δ [1]; read-out: PI3 Kinase Inhibition IC50 value at state isozyme, δ): 2.5 nM | EC50 (PI3K δ [2]): 7.4 nM | effects on cell viability (in words) (d-U937 cells): No effects | Cell Viability MTT Assay in d-U937 cells at 4 hr (d-U937 cells; 10 μg/mL, 4 hr): −ve (−ve indicates a value of <30% inhibition at 10 μg/mL) | Cell Viability MTT Assay in d-U937 cells at 24 hr (d-U937 cells; 10 μg/mL, 24 hr): −ve (−ve indicates a value of <30% inhibition at 10 μg/mL)
